These molecules were tested against T1, DDAH (Rattus norvegicus, UniProt O08557) (assay: DDAH activity assay (rat kidney lysate, [14C]L-NMMA to [14C]citrulline)). Details: 100 μM compound.
T1 construct: Rat kidney was homogenized in PBS; from tissue; host or cells: rat kidney homogenate, high-speed supernatant
T1 sequence (O08557 2-285 limits assumed): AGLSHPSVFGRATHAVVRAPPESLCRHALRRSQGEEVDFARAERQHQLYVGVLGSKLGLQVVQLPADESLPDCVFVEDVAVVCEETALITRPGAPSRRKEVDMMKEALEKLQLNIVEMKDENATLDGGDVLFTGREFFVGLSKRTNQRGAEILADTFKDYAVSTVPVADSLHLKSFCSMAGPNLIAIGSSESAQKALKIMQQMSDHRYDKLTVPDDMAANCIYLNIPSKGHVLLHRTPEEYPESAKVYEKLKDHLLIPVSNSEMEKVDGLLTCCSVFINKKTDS
Assay type: biochemical
Protocol: Rat kidney was homogenized in PBS containing PMSF 1 mM, leupeptin 5 μg/ml, pepstatin 5 μg/ml, chymostatin 5 μg/ml, and the lysate was centrifuged (4000 rpm. 20 min then supernatant further centrifuged for 40000 rpm, 30 min, 4° C.). The supernatants were analyzed for DDAH activity; [^14[…]) was added to the cell lysates (final volume 100 μl) and incubated for 1 h at 37° C. Dowex resin (0.5 ml) at neutral pH was immediately added to samples to terminate the reaction and bind unmetabolized L-NMMA. [^14C]Citrulline formation was determined by scintillation counting (Hewlett Packard).
For `N=C(NCCC[C@H](N)C(=O)O)NCC1CCCO1` (stereo partly drawn) [Example 31, (S)—N^G-((Tetrahydrofuran-2-yl)methyl)-arginine], the “Inhibition at 100 μM (%)” value was 30%.
For `COCCN=C(N)NCC[C@H](N)C(=O)OCCOC` [Example 41, 2-Methoxyethyl (S)-2-amino-4-[(N′-(2-methoxyethyl))guanidino]butanoate], the inhibition at 100 µM was 59%.
Work on `COCCN=C(N)NCC[C@H](N)C(=O)OCc1cccc(F)c1` [Example 40, 3-Fluorobenzyl (S)-2-amino-4-[(N′-(2-methoxyethyl))guanidino]butanoate] yielded an inhibition at 100 µM of 33.2%.
With `N=C(NCC[C@H](N)C(=O)O)NCC1CCCO1` (stereo partly drawn) [Example 32, (2S)-2-Amino-4-N^G-((tetrahydrofuran-2-yl)methyl)guanidinobutanoic acid] the “Inhibition at 100 μM (%)” value was 10%.
`COCCN=C(N)NCC[C@H](N)C(=O)OCc1cccc(C(F)(F)F)c1` [Example 39, 3-Trifluoromethylbenzyl (S)-2-amino-4-[(N′-(2-methoxyethyl))guanidino]butanoate] showed an inhibition at 100 µM of 45.3%.
Work on `COCCN=C(N)NCC[C@H](N)C(=O)OCc1cccc(Oc2ccccc2)c1` [Example 37, 3-Phenoxybenzyl (S)-2-amino-4-[(N′-(2-methoxyethyl))guanidino]butanoate] yielded an inhibition at 100 µM of 42.7%.
For `COCCN=C(N)NCC[C@H](N)C(=O)OCc1ccccc1F` [Example 35, 2-Fluorobenzyl (S)-2-amino-4-[(N′-(2-methoxyethyl))guanidino]butanoate], the inhibition at 100 µM was 39.8%.
With `COCCN=C(N)NCC[C@H](N)C(=O)OCc1cccc(C)c1` [Example 38, 3-Methylbenzyl (S)-2-amino-4-[(N′-(2-methoxyethyl))guanidino]butanoate] the inhibition at 100 µM was 48.7%.
`COCCN=C(N)NCC[C@H](N)C(=O)OCc1ccc(F)c(C(F)(F)F)c1` [Example 36, 3-Trifluoromethyl-4-fluorobenzyl (S)-2-amino-4-[(N′-(2-methoxyethyl))guanidino]butanoate] showed an inhibition at 100 µM of 50.6%.
With `COCCN=C(N)NCC[C@H](N)C(=O)OCc1ccc(OC)cc1` [Example 34, 4-Methoxybenzyl (S)-2-amino-4-[(N′-(2-methoxyethyl))guanidino]butanoate] the inhibition at 100 µM was 22.1%.
With `COCCN=C(N)NCC[C@H](N)C(=O)OCc1ccccc1OC` [Example 33, 2-Methoxybenzyl (S)-2-amino-4-[(N′-(2-methoxyethyl))guanidino]butanoate] the inhibition at 100 µM was 47.4%.

Same assay, conditions: 1 mM compound, [14C]L-NMMA 1 μmol/L, 1 h 37° C.
Work on `NC(=NCc1ccccc1)NCC[C@H](N)C(=O)O` [Example 3, (S)-2-Amino-4-(N′-benzylguanidino)butanoic acid] yielded an inhibition at 1000 µM of 22%.
Molecule `N=C(NCC[C@H](N)C(=O)O)N1CCCC1` [Example 16, (S)-2-Amino-4-[(pyrrolidine-1-carboximidoyl)-amino]butanoic acid] has an inhibition at 1000 µM of 79%.
For `CC(C)OCCN=C(N)NCC[C@H](N)C(=O)O` [Example 13, (S)-2-Amino-4-(N′-(2-isopropoxyethyl)guanidino)butanoic acid], the inhibition at 1000 µM was 97%.
For `CC(C)(C)CN=C(N)NCC[C@H](N)C(=O)O` [Example 10], the “Inhibition at 1 mM, %” value was 19%.
Molecule `CCOC(=O)[C@@H](N)CCNC(N)=NCCOC` [Example 23, (S)-2-Amino-4-(N′-(2-methoxyethyl)guanidino)butanoic acid ethyl ester] has an inhibition at 1000 µM of 44%.
For `CCCN=C(N)NCC[C@H](N)C(=O)O` [Example 2, (S)-2-Amino-4-(N′-propylguanidino)butanoic acid], the inhibition at 1000 µM was 41%.
`C=CCN=C(N)NCC[C@H](N)C(=O)O` [Example 14, (S)-2-Amino-4-(N′-allylguanidino)butanoic acid] gave an inhibition at 1000 µM of 70%.
`N=C(NCC[C@H](N)C(=O)O)N1CCOCC1` [Example 17, (S)-2-Amino-4-[(morpholine-4-carboximidoyl)-amino]butanoic acid] gave an inhibition at 1000 µM of 60%.
In the case of `NC(=NCc1cccs1)NCC[C@H](N)C(=O)O` [(S)-2-Amino-4-(N′-(2-thiophenemethyl)guanidino)butanoic acid], the “Inhibition at 1 mM, %” value is reported as 34%.
In the case of `CN(C)CCN=C(N)NCC[C@H](N)C(=O)O` [Example 9, (S)-2-Amino-4-(N′-(2′-dimethylaminoethyl)guanidino)butanoic acid], the “Inhibition at 1 mM, %” value is reported as 25%.
`COCCN=C(N)NCC[C@H](N)C(=O)O` [Example 6, (S)-2-Amino-4-(N′-(2-methoxyethyl)guanidino)butanoic acid] showed an inhibition at 1000 µM of 90%.
With `CC(C)N=C(N)NCC[C@H](N)C(=O)O` [Example 1, (S)-2-Amino-4-(N′-isopropylguanidino)butanoic acid] the inhibition at 1000 µM was 38%.
Work on `N=C(NCC[C@H](N)C(=O)O)N1CCCCC1` [Example 15, (S)-2-Amino-4-[(piperidine-1-carboximidoyl)-amino]butanoic acid] yielded an inhibition at 1000 µM of 74%.
For `CSCCN=C(N)NCC[C@H](N)C(=O)O` [Example 12, (S)-2-Amino-4-(N′-(2-methylthioethyl)guanidino)butanoic acid], the inhibition at 1000 µM was 19%.
In the case of `NC(=NCCOc1ccccc1)NCC[C@H](N)C(=O)O` [Example 11, (S)-2-Amino-4-(N′-(2-phenoxyethyl)guanidino)butanoic acid], the inhibition at 1000 µM is reported as 38%.
`NC(=Nc1ccccc1)NCC[C@H](N)C(=O)O` [Example 5, (S)-2-Amino-4-(N′-phenylguanidino)butanoic acid] showed an inhibition at 1000 µM of 65%.
`CCCCCCCCN=C(N)NCC[C@H](N)C(=O)O` [Example 7, (S)-2-Amino-4-(N′-octylguanidino)butanoic acid] gave an inhibition at 1000 µM of 27%.
In the case of `NC(=NC1CC1)NCC[C@H](N)C(=O)O` [Example 8, (S)-2-Amino-4-(N′-cyclopropylguanidino)butanoic acid], the inhibition at 1000 µM is reported as 65%.
`CCCCOC(=O)[C@@H](N)CCNC(N)=NCCOC` [Example 25, (S)-2-Amino-4-(N′-(2-methoxyethyl)guanidino)butanoic acid butyl ester] was tested, and the inhibition at 1000 µM was 40%.
With `NC(=NC1CCCCC1)NCC[C@H](N)C(=O)O` [Example 4, (S)-2-Amino-4-(N′-cyclohexylguanidino)butanoic acid] the inhibition at 1000 µM was 51%.
